Experimental data from the NIST ThermoML archive (doi:10.1021/je9008014).
± gives the expanded uncertainty stated by the source.

Legend:
[1] = 101 kPa, Liquid; for mass density: Pycnometric method
[2] = xn = mol fraction of the nth substance listed; settings: 101 kPa, Liquid, x2 = 0

SMILES: CCOCCOCCOCCO [2-(2-(2-ethoxyethoxy)ethoxy)ethanol]
- viscosity ([1]; 293.15 K): 7.796 ± 0.16 mPa·s
- mass density ([1]; 293.15 K): 1020.6 ± 2.1 kg/m3
- viscosity ([1]; 298.15 K): 6.739 ± 0.14 mPa·s
- mass density ([1]; 298.15 K): 1016.3 ± 2.1 kg/m3
- viscosity ([1]; 303.15 K): 5.657 ± 0.12 mPa·s
- mass density ([1]; 303.15 K): 1011.9 ± 2.1 kg/m3
- mass density ([1]; 308.15 K): 1008.1 ± 2.1 kg/m3
- viscosity ([1]; 313.15 K): 4.185 ± 0.094 mPa·s
- mass density ([1]; 313.15 K): 1003.9 ± 2.1 kg/m3
- viscosity ([1]; 323.15 K): 3.326 ± 0.076 mPa·s
- mass density ([1]; 323.15 K): 995.5 ± 2 kg/m3
- viscosity ([1]; 333.15 K): 2.627 ± 0.061 mPa·s
- mass density ([1]; 333.15 K): 986.7 ± 2 kg/m3

SMILES: O [water] + CCOCCOCCOCCO
- viscosity ([2]; 293.15 K): 1.005 ± 0.025 mPa·s
- viscosity ([2]; 303.15 K): 0.8007 ± 0.02 mPa·s
- viscosity ([2]; 313.15 K): 0.656 ± 0.017 mPa·s
- viscosity ([2]; 323.15 K): 0.5494 ± 0.015 mPa·s
- mass density ([2]; 333.15 K, Pycnometric method): 983.2 ± 2 kg/m3
- viscosity ([2]; 333.15 K): 0.4688 ± 0.013 mPa·s
